{"source": "patent US20220125753A1", "about": "“COMPOSITIONS AND METHODS FOR TREATING ISCHEMIC STROKE” (The General Hospital Corporation, priority 2015, published 2022)", "key": {"[1]": {"details": "cited from earlier work"}, "[2]": {"test_system": "unilateral hypoxia-ischemia in neonatal rats", "details": "given at the end of the hypoxic period, assessed at 48 hours; cited from earlier work"}, "clinical": {"assay": "clinical", "details": "human, in vivo, inhaled or intranasal, AUC (plasma)"}, "[3]": {"test_system": "transient middle cerebral artery occlusion", "details": "adult rats; intracerebral injection; cited from earlier work"}, "Aß amyloid peptide [4]": {"test_system": "Aß amyloid peptide", "assay": "In vitro assays of Aß amyloid peptide polymerization into oligomers and aggregates", "type": "biochemical", "details": "at nanomolar concentrations", "experimental": "One of the most routinely used approaches to monitor Aβ polymerization is the thioflavin T binding assay (Elmaleh, 2014; Hori, 2015). […] AO peptide at 5 μM was mixed with 10 μM thioflavin T with drug at different concentrations.\nFibrillization of synthetic Aß40 (left column) or Aß42 (right column) peptides was followed over 1 hour."}, "[5]": {"test_system": "hemorrhage formation after tPa treatment", "details": "adult rats; intracerebral injection; cited from earlier work"}, "[6]": {"test_system": "experimental cerebral ischemia/reperfusion", "details": "cited from earlier work"}, "[7]": {"details": "for maximum plasma concentration / time of maximum plasma concentration: mean ± spread"}, "Aß amyloid peptide [8]": {"test_system": "Aß amyloid peptide", "details": "at nanomolar concentrations; laboratory testing (Hori 2015; Elmaleh 2014); cited from earlier work"}, "microglial cells": {"test_system": "microglial cells", "assay": "Microglia culture incubated with synthetic Aß40 or Aß42, Aß ELISA of media", "type": "cell-based", "details": "0.10 nM, 10 μM or 1 mM Cromolyn Sodium, 16 hours", "experimental": "After the incubation, the concentrations of […]-42 (right panel) in media were measured using Aß ELISA and normalized with microglia cell number and according to the PBS control condition. (n=3 experiments; *, P<0.05, **, P<0.01)"}, "APP/PS1 mice [9]": {"test_system": "APP/PS1 mice", "assay": "Short-term treatment of APP/PS1 mice, TBS soluble Aß in brain (ELISA, immunoblotting)", "type": "in vivo", "details": "after 1 week of peripherally administered cromolyn sodium (intraperitoneally daily), 7.5 months old APP/PS1 mice", "protocol": "One week after daily injection, tris-buffered saline (TBS) soluble Aßx-40 (left graph) and Aßx-42 (right graph) were measured under the condition with (black bar) or without (white bar) pre-incubation with guanidine (Gdn)-HCl using Aß ELISA. The value under the incubation with Gdn-HCl show the concentration of total TBS soluble Aß, and the value under the no incubation with Gdn-HCl show the concentration of monomeric Aß. FIG. 5B: oligomeric Aß in TBS soluble brain extracts were measured using 82E1/82E1 Aß oligomer specific ELISA. FIG. 5C illustrates representative immunoblotting of TBS soluble brain extracts with anti-Aß antibody (6E10 and 82E1) (left panel). The densitometry of monomeric Aß was quantified (right graph). (n=3-5/group; *, P<0.05, **, P<0.01)."}, "APP/PS1 mice [10]": {"test_system": "APP/PS1 mice", "assay": "Immunostaining of Aß and microglial marker Iba1 in brain sections", "type": "in vivo", "details": "3.15 mg/kg daily for seven days vs PBS"}, "[11]": {"details": "34.2 mg double inhaled dose, range"}}, "note": "“Also recorded” adds a separate entry of the source. Like-named read-outs stand apart in the source and are kept apart here.", "data": [{"compound": "O=C([O-])c1cc(=O)c2c(OCC(O)COc3cccc4oc(C(=O)[O-])cc(=O)c34)cccc2o1.[Na+].[Na+]", "note": "[Cromolyn]", "values": [{"measurement": "variability of plasma levels following inhalation", "setting": "[1]", "value": "high intraand inter-subject variability"}, {"measurement": "cromolyn uptake by asthmatics", "setting": "[1]; inhalation, compared with healthy volunteers", "value": "lower than by healthy volunteers"}, {"measurement": "glial activation", "setting": "[2]", "value": "limited"}, {"measurement": "mast cell migration/degranulation", "setting": "[2]", "value": "limited"}, {"measurement": "neuronal loss", "setting": "[2]", "value": "limited"}, {"measurement": "AUC", "setting": "clinical; 17.1 mg, 17.1 mg single dose inhalation, mean ± spread", "value": "148 ± 67.1", "unit": "ng·h/mL"}, {"measurement": "AUC", "setting": "clinical; 17.1 mg, range, 17.1 mg single dose inhalation", "value": "44.7 to 287", "unit": "ng·h/mL"}, {"measurement": "AUC", "setting": "clinical; 34.2 mg, 34.2 mg double dose inhalation, mean ± spread", "value": "254 ± 93.8", "unit": "ng·h/mL"}, {"measurement": "AUC", "setting": "clinical; 34.2 mg, range, 34.2 mg double dose inhalation", "value": "122 to 443", "unit": "ng·h/mL"}, {"measurement": "neutrophil accumulation", "setting": "[3]", "value": "reduced"}, {"measurement": "inhibition of Aß aggregation / polymerization into oligomers and higher order aggregates", "setting": "Aß amyloid peptide [4]", "value": "inhibition; also recorded: effectively inhibits"}, {"measurement": "hemorrhage formation after tPa treatment", "setting": "[5]", "value": "inhibited"}, {"measurement": "survival of experimental animals", "setting": "[6]", "value": "improved survival"}, {"measurement": "maximum plasma concentration", "setting": "[7]; 17.1 mg single inhaled dose, healthy volunteers", "value": "47.1 ± 33.6", "unit": "ng/mL"}, {"measurement": "time of maximum plasma concentration", "setting": "[7]; 17.1 mg single inhaled dose", "value": "23.3 ± 16.9", "unit": "min"}, {"measurement": "time of maximum plasma concentration, range", "setting": "[7]; 17.1 mg single inhaled dose, range", "value": "5 to 60", "unit": "min"}, {"measurement": "maximum plasma concentration, range", "setting": "[7]; 17.1 mg single inhaled dose, range over subjects", "value": "14.0 to 133", "unit": "ng/mL"}, {"measurement": "maximum plasma concentration", "setting": "[7]; 34.2 mg double inhaled dose", "value": "95.0 ± 45.5", "unit": "ng/mL"}, {"measurement": "time of maximum plasma concentration", "setting": "[7]; 34.2 mg double inhaled dose", "value": "22.2 ± 19.4", "unit": "min"}, {"measurement": "maximum plasma concentration, range", "setting": "[7]; [11]", "value": "36.1 to 236", "unit": "ng/mL"}, {"measurement": "time of maximum plasma concentration, range", "setting": "[7]; [11]", "value": "5 to 60", "unit": "min"}, {"measurement": "binding to and inhibition of amyloid β (Aβ) peptide oligomerization", "setting": "Aß amyloid peptide [8]", "value": "bind to and inhibit"}]}, {"compound": "O=C(O)c1cc(=O)c2c(OCC(O)COc3cccc4oc(C(=O)O)cc(=O)c34)cccc2o1", "note": "[cromolyn sodium]", "values": [{"measurement": "Aß40 levels in media of microglia culture", "setting": "microglial cells; 50 nM synthetic Aß40", "value": "dose-dependent decrease"}, {"measurement": "Aß42 levels in media of microglia culture", "setting": "microglial cells; 50 nM synthetic Aß42", "value": "dose-dependent decrease"}, {"measurement": "decrease of total soluble Aβ levels", "setting": "APP/PS1 mice [9]", "value": "over 50%"}, {"measurement": "percentage of Iba1 immunoreactivity overlapping with amyloid", "setting": "APP/PS1 mice [10]", "value": "higher percentage"}, {"measurement": "percentage of Iba1 immunoreactivity overlapping with amyloid", "setting": "APP/PS1 mice [10]; listed as Cromolyn Sodium", "value": "increased overlap"}]}]}
